According to paper PMC5716539, “The acute glucose lowering effect of specific GPR120 activation in mice is mainly driven by glucagon-like peptide 1” (PLoS ONE, 2017):
Where two headings read alike, the source gives them in different places.

Columns and labels:
human GPR120 = target: T1, human GPR120 (Homo sapiens, UniProt Q5NUL3); test: β-arrestin recruitment (Tango) assay in U2OS-hGPR120 cells; assay type: cell-based
T1 construct: expressed in transfected cells
T1 sequence (Q5NUL3 1-361): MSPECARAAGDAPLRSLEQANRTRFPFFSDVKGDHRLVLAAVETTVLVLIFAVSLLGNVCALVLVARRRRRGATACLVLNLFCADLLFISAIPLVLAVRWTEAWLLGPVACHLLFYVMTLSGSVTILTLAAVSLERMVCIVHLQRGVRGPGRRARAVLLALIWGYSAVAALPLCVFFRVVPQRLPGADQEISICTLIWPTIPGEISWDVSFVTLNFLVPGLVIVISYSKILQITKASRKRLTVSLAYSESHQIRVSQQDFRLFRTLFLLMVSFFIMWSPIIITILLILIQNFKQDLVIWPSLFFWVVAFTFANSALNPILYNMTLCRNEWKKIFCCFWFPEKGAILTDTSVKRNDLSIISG
Method: U2OS-hGPR120 cells cultured in Freestyle medium (Invitrogen) were incubated for 5 hours with GPR120 agonists in 384-well Cell BIND plates (Corning) at 37°C, 95% humidity and 5% CO2. LiveBLAzer™ FRET B/G working solution (Invitrogen) was added and after 2 hours at room temperature fluorescence intensity (λex = 405 nm, λem = 530 and 460 nm) was detected using a Pherastar FS (BMG Labtech) according to the manufacturers protocol.

[1] = system: islets from GPR120 null mice; test: cAMP production in dispersed islet cells from GPR120 null mice; assay type: cell-based, mouse; conditions: 10 μM agonist
Method: (§1) Mouse islets were isolated from pancreas by collagenase digestion, handpicked under microscope following multiple washing steps and dispersed to single cells using TrypLE Express (Gibco). The dispersed islet cells (20 000 cells/well) were incubated with the GPR120 agonists for 30 min in 96-well black plates (Corning) at 37°C in Krebs ringer phosphate Hepes buffer, pH 7.4, with 11 mM Glucose, 0.1% BSA and 0.5 mM 3-isobutyl-1-methylxanthine followed by addition of d2-labeled cAMP and anti-cAMP Cryptate in conjugation and lysis buffer (Cisbio). Produced cAMP was detected with homogenous time resolved fluorescence (HTRF) (λex = 340 nm, λem = 665 and 615 nm) using a Pherastar (BMG Labtech).

[2] = system: dispersed wt mouse islets cell; test: cAMP production in dispersed wild type mouse islet cells; assay type: cell-based; conditions: 10 μM agonist, vs control cells
Method: as §1

STC-1 cells = test: GLP-1 secretion from STC-1 cells; assay type: cell-based, mouse; conditions: 2 hours, active GLP-1, vs 0.1% DMSO
Method: STC-1 cells were cultured in DMEM (Invitrogen) supplemented with 10% horse serum (ThermoFisher Scientific), 2.5% FBS (Hyclone) and 1% Penicillin/Streptomycin in 96-well poly-D-Lysine coated plates to 80–90% confluence at 37°C, 5% CO2. Cells were washed and pre-incubated in assay buffer (HBSS with Ca^2+ and Mg^2+ containing 20 mM HEPES, 0.1% BSA (Sigma) and 20 nM sitagliptin (dipeptidyl peptidase 4 (DPP-4) inhibitor), for 30 min in 37°C. GPR120 agonists were added and cells were incubated for 2 hours in 37°C. DMSO (0.1%) was used as control. GLP-1 secretion was measured in the supernatants (GLP-1 active, Millipore) by fluorescence detection. Concentration of active GLP-1 was derived by interpolation from a GLP-1 standard curve.

mouse GPR120 = target: T2, mouse GPR120 (Mus musculus, UniProt Q7TMA4); test: cAMP production in CHO cells overexpressing mouse GPR120; assay type: cell-based; conditions: data not shown
T2 construct: expressed in transfected cells
T2 sequence (Q7TMA4 1-361): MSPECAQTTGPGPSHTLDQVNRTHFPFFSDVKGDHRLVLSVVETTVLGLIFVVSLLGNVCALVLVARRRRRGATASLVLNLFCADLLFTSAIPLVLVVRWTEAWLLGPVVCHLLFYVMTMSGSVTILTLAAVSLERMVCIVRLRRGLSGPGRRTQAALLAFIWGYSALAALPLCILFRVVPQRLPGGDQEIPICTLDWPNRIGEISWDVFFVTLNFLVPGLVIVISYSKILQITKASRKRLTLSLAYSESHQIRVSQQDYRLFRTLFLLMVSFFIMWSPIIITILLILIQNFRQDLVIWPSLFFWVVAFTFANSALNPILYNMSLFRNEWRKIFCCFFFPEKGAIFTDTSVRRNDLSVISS

mouse GPR40 = target: T3, mouse GPR40 (Mus musculus, UniProt Q76JU9); test: Calcium mobilization assay in HEK293-mGPR40 cells; assay type: cell-based
T3 construct: expressed in transfected cells
T3 sequence (Q76JU9 whole entry): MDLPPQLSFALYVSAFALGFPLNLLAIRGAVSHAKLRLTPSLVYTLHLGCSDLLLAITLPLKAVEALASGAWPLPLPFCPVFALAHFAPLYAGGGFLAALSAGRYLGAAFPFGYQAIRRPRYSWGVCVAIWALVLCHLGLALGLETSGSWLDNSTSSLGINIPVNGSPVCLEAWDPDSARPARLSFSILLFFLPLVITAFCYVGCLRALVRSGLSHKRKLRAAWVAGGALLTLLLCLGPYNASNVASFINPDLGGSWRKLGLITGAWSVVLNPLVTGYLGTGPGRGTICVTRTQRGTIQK
Method: CHO-hGPR120 and CHO cells were cultured in DMEM/F-12 (Invitrogen) with 10% FBS (Sigma) and HEK293-mGPR40 in DMEM (Invitrogen) supplemented with 10% FBS in 384-well poly-D-Lysin coated microplates (Greiner) at 37°C, 95% humidity and 5% CO2. After 19 hours cell media was replaced with Calcium4 dye (Molecular Devices) in HBSS (Invitrogen), 20 mM HEPES (Invitrogen), pH 7.4 and 1.25 mM Probenecid (Sigma). After 1 hour at room temperature agonists were added and calcium mobilization was detected as change in fluorescence (λex = 488 and λem = 540 nm) using a FLIPR^TETRA (Molecular Devices).

C#Cc1cc(Oc2cccnc2)cc(N2Cc3ccccc3S2(=O)=O)c1 [AZ13581837, 2-(3-ethynyl-5-(3-pyridyloxy)phenyl)-3H-1,2-benzothiazole 1,1-dioxide]
EC50 (human GPR120): 5.2 ± 0.4 nM
cAMP production in islets from GPR120 null mice [1]: no effect
cAMP production in dispersed wt mouse islet cells [2]: significantly reduced cAMP production
GLP-1 secretion from STC-1 cells (STC-1 cells): significantly increased GLP-1 secretion
Activation or inhibition of cAMP production in CHO cells overexpressing mouse GPR120 (mouse GPR120): unable to detect
Activation of mouse GPR40 in calcium mobilization assay (mouse GPR40): did not activate

3-(3,5-difluoro-4-((3-methyl-1-phenyl-1H-pyrazol-5-yl)methoxy)phenyl)-2-methylpropanoic acid [Metabolex-36]
EC50 (human GPR120; read-out: β-arrestin EC50, β-arrestin recruitment in U2OS-hGPR120 cells, mean ± SEM): 1400 ± 700 nM
cAMP production in islets from GPR120 null mice [1]: no effect
cAMP production in dispersed wt mouse islet cells [2]: significantly reduced cAMP production
GLP-1 secretion from STC-1 cells (STC-1 cells): significantly increased GLP-1 secretion
Activation or inhibition of cAMP production in CHO cells overexpressing mouse GPR120 (mouse GPR120): unable to detect
Activation of mouse GPR40 in calcium mobilization assay (mouse GPR40): did not activate
